Reference: paper PMC9884808, “Pharmacokinetics, tissue distribution, and antitumor activity of a novel compound, NY-2, in non-small cell lung cancer” (Frontiers in Pharmacology, 2023)
Like-named read-outs stand apart in the source and are kept apart here. Marks after values point to notes of the source that are not given here.

Tests used:
HCT116 = test: MTT cell viability assay; type: cell-based, human; set-up: key to IC50 HCT116: -: poor activity, cannot be unified; conditions: for IC50 HCT116: HCT116 colorectal cancer cells; for IC50: Homo sapiens, HCT-116, HCT116 colorectal cancer cells
Procedure: (§1) The human colorectal cancer cell lines, HCT116 and LoVo, the breast cancer cell line, T47D, the hepatocellular carcinoma cell line, HepG2, the normal human liver cell line, HL7702, human umbilical vein endothelial cells (HUVECs), and the non-small cell lung cancer cell lines, A549, H1993, HCC827, H460, were purchased from the American Type Culture Collection (Manassas, VA, United States). Cell lines were cultured in the recommended RPMI-1640 medium (AE24464298, Hyclone, United States) and DMEM medium (AE29422278, Hyclone, United States) supplemented with 10% fetal bovine serum (FBS; JC63470, FB15015, Clark, United States) with 1% penicillin-streptomycin. Cells were maintained in an incubator at 37°C with 5% CO2 (HF90,Sanyo, Japan) and passaged every 48–72 h, after detaching with 0.25% trypsin (Sigma, United States). The compounds ZLDI-8 and NY-1 to -15 were synthesized in the laboratory of Dr. Huaiwei Ding in Shenyang Pharmaceutical University, and verified by high-performance liquid chromatography (purity >95%) for use in experiments (Supplementary Figure S1). Paclitaxel was purchased from MedChemExpress (HY-B0015, 99.97% purity, United States).
(§2) Cell viability was measured by the MTT assay. HCT116, HL7702, A549, H1993, HCC827, and H460 cells were dispensed into 96-well plates at a density of 1 × 10^5 cells/mL. After 24–48 h incubation, cells were treated with the compounds at different concentrations for the indicated periods. An assay kit (WLA073, Wanlei Co., Liaoning, China), was used according to the manufacturer’s instructions to measure LDH activity, The absorbance at 450 nm was measured with a microplate reader (Elx-800, Bio-Rad, China).
(§3) The preliminary antitumor activity of the series of ZLDI-8 derivatives, NY-1 to -15 was screened by the MTT cell viability assay. […] The antitumor activity of NY-2 on HCT116 cells was concentration- and time-dependent, and slightly better than that of the original compound, ZLDI-8.

LoVo = test: MTT cell viability assay; type: cell-based, human; set-up: key to IC50 LoVo: -: poor activity, cannot be unified; conditions: LoVo colorectal cancer cells; for IC50: Homo sapiens
Procedure: as §1, §2, §3

T47D = test: MTT cell viability assay; type: cell-based, human; set-up: key to IC50 T47D: -: poor activity, cannot be unified; conditions: T47D breast cancer cells; for IC50: Homo sapiens
Procedure: as §1, §2, §3

HepG2 = test: MTT cell viability assay; type: cell-based, human; set-up: key to IC50 HepG2: -: poor activity, cannot be unified; conditions: HepG2 hepatocellular carcinoma cells; for IC50: Homo sapiens
Procedure: as §1, §2, §3

A549 cells = conditions: 28 days, NY-2 6 mg/kg, paclitaxel 1 mg/kg; for Lung metastasis of nude mice, number of mice (%): six mice per group, model 5 mice (83.3%)
Procedure: The experimental groups included the normal (no tumor cells, vehicle) group, the model (tumor cells, vehicle) group, NY-2-treated, and paclitaxel-treated groups, with six mice in each group. After 7 days for adaptation, 200 µL of A549 cells (2× 10^6 cells/mice) in serum-free medium were injected into the tail vein except for those in the normal group. Drug or vehicle administration via tail vein was started on the next day. The normal group and model group were given the same amount of sterile water containing 1% DMSO and 1% Tween as vehicle control. […] Injections were done every other day. The general conditions of the nude mice, with regard to activity and food ingestion, were observed every day, and their body weight was measured every other day.
KM mice were treated with ZLDI-8 or NY-2 by tail vein injection (6 mg/kg) for 7 days, then the mice were euthanized and liver and kidney tissues were removed and sectioned. For the experiment with BALB/c nude mice, the tail vein injections of NY-2 (6 mg/kg) were continued for 28 days, and the lungs, tumor, heart, liver, and kidney were removed. […] Sections for staining were dewaxed with xylene and then rehydrated, and hematoxylin-eosin staining was performed, after which the sections were again dehydrated in ethanol and cleared with xylene before being mounted on a slide, cover-slipped and examined microscopically. The remainder of the tumors and tissues was frozen in liquid nitrogen for other studies.

Compound | IC50 (HepG2) [µM] | IC50 (HCT116) [µM] | IC50 (LoVo) [µM] | IC50 HepG2 (HepG2) | IC50 (T47D) [µM] | other results
Cc1ccc(OCCn2c(C)c(C=C3C(=O)NC(=O)NC3=O)c3ccccc32)c(C)c1 [NY-1] | 26.2 |  |  |  |  | IC50 HCT116 (HCT116): -; IC50 LoVo (LoVo): -; IC50 T47D (T47D): -
Cc1c(C=C2C(=O)NC(=O)NC2=O)c2ccccc2n1CCOc1ccc(F)cc1 [NY-3] |  | 43.7 | 21.4 | - |  | IC50 T47D (T47D): -
Cc1c(C=C2C(=O)NC(=S)NC2=O)c2ccccc2n1CCOc1cccc(F)c1 [NY-4] |  | 27.5 | 41.8 | - | 25.4 | 
Cc1c(C=C2C(=O)NC(=O)NC2=O)c2ccccc2n1CCOc1cccc(F)c1 [NY-5] | 37.2 | 11.4 | 23.5 |  | 34 | 
O=C1NC(=O)C(=Cc2cn(CCOc3cccc(F)c3)c3ccccc23)C(=O)N1 [NY-6] | 40.8 | 38.8 | 28.7 |  | 53.7 | 
Cc1c(C=C2C(=O)NC(=S)NC2=O)c2ccccc2n1CCOc1cccc(C(F)(F)F)c1 [NY-7] | 77.4 | 12.5 | 20.6 |  | 21.8 | 
Cc1c(C=C2C(=O)NC(=O)NC2=O)c2ccccc2n1CCOc1cccc(C(F)(F)F)c1 [NY-8] |  |  | 38.1 | - | 10.3 | IC50 HCT116 (HCT116): -
O=C1NC(=O)C(=Cc2cn(CCOc3cccc(C(F)(F)F)c3)c3ccccc23)C(=O)N1 [NY-9] | 85.2 | 35.3 |  |  |  | IC50 LoVo (LoVo): -; IC50 T47D (T47D): -
Cc1c(C=C2C(=O)NC(=S)NC2=O)c2ccccc2n1CCOc1ccc(Cl)cc1Cl [NY-10] | 66.7 | 26 | 86.4 |  | 23.3 | 
Cc1c(C=C2C(=O)NC(=O)NC2=O)c2ccccc2n1CCOc1ccc(Cl)cc1Cl [NY-11] | 90.1 |  | 23.2 |  | 16.6 | IC50 HCT116 (HCT116): -
O=C1NC(=O)C(=Cc2cn(CCOc3ccc(Cl)cc3Cl)c3ccccc23)C(=O)N1 [NY-12] |  | 20 |  | - | 40.4 | IC50 LoVo (LoVo): -
Cc1c(C=C2C(=O)NC(=S)NC2=O)c2ccccc2n1CCOc1cccc2ccccc12 [NY-13] | 33.1 | 12.8 | 43.2 |  | 5.15 | 
Cc1c(C=C2C(=O)NC(=O)NC2=O)c2ccccc2n1CCOc1cccc2ccccc12 [NY-14] |  |  |  | - | 74.3 | IC50 HCT116 (HCT116): -; IC50 LoVo (LoVo): -
O=C1NC(=O)C(=Cc2cn(CCOc3cccc4ccccc34)c3ccccc23)C(=O)N1 [NY-15] | 13.5 | 11.3 | 124 |  | 21.4 | 
CC(=O)O[C@H]1C(=O)[C@@]2(C)[C@H]([C@H](OC(=O)c3ccccc3)[C@]3(O)C[C@H](OC(=O)[C@H](O)[C@@H](NC(=O)c4ccccc4)c4ccccc4)C(C)=C1C3(C)C)[C@]1(OC(C)=O)CO[C@@H]1C[C@@H]2O [Paclitaxel, reference compound] |  |  |  |  |  | Body weight before dissection (A549 cells; nude mice with A549 lung metastasis, tail vein every other day, n=6, mean ± SEM): 22.72 ± 0.32 g; Kidney as a proportion of body weight (A549 cells; nude mice, n=6, mean ± SEM): 1.74 ± 0.03 10^-2; Liver as a proportion of body weight (A549 cells; nude mice, n=6, mean ± SEM): 5.45 ± 0.20# 10^-2; Lung as a proportion of body weight (A549 cells; nude mice, n=6, mean ± SEM): 0.64 ± 0.02 10^-2; Quality of the heart (A549 cells; nude mice, n=6, mean ± SEM): 0.14 ± 0.01 g; Quality of the kidney (A549 cells; nude mice, n=6, mean ± SEM): 0.41 ± 0.01 g; Quality of the liver (A549 cells; nude mice, n=6, mean ± SEM): 1.29 ± 0.06 g; Quality of the lung (A549 cells; nude mice, n=6, mean ± SEM): 0.15 ± 0.01 g; infiltration of A549 cells in the lung tissue (H&E) (A549 cells; nude mice): no infiltration of A549 cells in the lung tissue; Lung metastasis of nude mice, number of mice (%) (A549 cells): 0 (0); Lung metastasis of nude mice, number of mice (%) (A549 cells; listed as paclitaxel): No metastatic tumors were found
